Measured values reported in patent publication US11035856B1 (priority 2007, dated 2021).
Where “and” joins values, the source holds several entries; their conditions need not be identical. Equal values may be shown once. Read-outs that look alike come from different tables or passages of the source.

What was measured:
cyanobacteria [1] = assay type: cell-based
cyanobacteria [2] = assay type: cell-based; remark: listed apart in the source

## O=S(=O)([O-])[O-].O=S(=O)([O-])[O-].O=S(=O)([O-])[O-].[Al+3].[Al+3] [Al2(SO4)3, reference compound]
Cyanobacteria [1]; 100 ppm
  Microcystin concentration determined by the assay: 0.45 ppb

## O=S(=O)([O-])[O-].[Cu+2] [CuSO4, copper sulfate]
Cyanobacteria [1]; 10 ppm
  Microcystin concentration determined by the assay: 2.40 ppb
Cyanobacteria [1]; 100 ppm
  Microcystin concentration determined by the assay: 2.31 ppb
Cyanobacteria [1]; 1000 ppm
  Microcystin concentration determined by the assay: 7.25 ppb and 5.17 ppb
Cyanobacteria [1]; 1000 ppm for 10 min
  Microcystin concentration determined by the assay: 4.28 ppb
Cyanobacteria [1]; 1000 ppm for 20 min
  Microcystin concentration determined by the assay: 4.96 ppb
Cyanobacteria [1]; 1000 ppm for 30 min
  Microcystin concentration determined by the assay: 5.64 ppb
Cyanobacteria [1]; 5000 ppm
  Microcystin concentration determined by the assay: 4.79 ppb

## CCCCCCCCCCCCOS(=O)(=O)[O-].[Na+] [SDS, reference compound]
Cyanobacteria [1]; 0.1%
  Microcystin concentration determined by the assay: 14.13 ppb

## O=[N+]([O-])[O-].[Ag+] [Silver nitrate]
Cyanobacteria [2]
  effectiveness as a lytic agent: as effective as silver sulfate as a lytic agent

## Triton X-100 [reference compound]
Cyanobacteria [1]
  Microcystin concentration determined by the assay: 2.92 ppb and 2.52 ppb and 2.55 ppb
